According to US20230241057A1, “COMPOUNDS FOR THE PREVENTION, TREATMENT AND DIAGNOSIS OF THROMBI” (INSERM (INSTITUT NATIONAL DE LA SANTÉ ET DE LA RECHERCHE …, priority 2020, published 2023):

Legend:
blood platelets = assay: Platelet adhesion to coated nitinol disks, phalloidin-AlexaFluor 488 staining; type: cell-based; settings: for Platelet binding (% of max): coated nitinol disks immersed 10 min in blood withdrawn in PPAK, mean±SEM, 6/coating
Description: (§1) Nitinol disks are left untouched (bare metal) or coated with the tested chromatin ligands following a polydopamine, DBCO-PEG4-amine and azide derivative ligand sequential dip-coating layering procedure.
(§2) Each dot corresponds to the mean binding (% of max, mean±SEM) of chromatin (X-axis) and platelet (Y-axix) with the standard error bars parallel to the respective axis.
(§3) Different linkers were combined with piperaquine and the resulting azide derivatives were used for coating nitinol disks (N=6 for each compound), following the described 3-step dip-coating procedure. Platelet adhesion (left panel) was evaluated by analyzing the surface and intensity of the phalloidin staining (green fluorescence) after immersion of the disks (N^o=6/coating) for 10 min in blood withdrawn in PPAK (thrombin inhibitor providing a transient anticoagulation). The binding of extracellular chromatin was evaluated by applying for 3 minutes the disks on the bottom of wells in which fresh human neutrophils were stimulated with nigericin for 4 hours, to promote the formation of neutrophil extracellular traps (NETs). Extracellular chromatin was stained with the cell impermeant nuclear dye Sytox Green.

[1] = tested on: extracellular chromatin (NETs); assay: Extracellular chromatin (NETs) binding to coated nitinol disks, Sytox Green staining; parameters: species or system human; settings: for Chomatin binding (% of max): coated nitinol disks applied 3 minutes on nigericin-stimulated human neutrophils, mean±SEM, 6/coating; for Chromatin/Platelet binding ratio: ratio of chromatin binding to platelet binding (% of max)
Description: as §1
Extracellular chromatin adhering to the disk surface was stained with the cell impermeant nuclear dye Sytox Green.
as §2, §3

[2] = tested on: thrombus material (DNA and proteins); settings: coated nitinol disks vs bare metal; thrombus slice 5 minutes at 37° C. in human plasma; Hoechst 33342 / Evans Blue staining
Description: Polydopamine (1 mg/ml in tris buffer, pH 8.5, 22±2 hours)
A fresh thrombus was prepared with human whole blood additioned with PMA 100 nM and ionomycin 1 μM to promote strong leukocyte activation leading to the release of extracellular chromatin within the thrombus. Slice of the same thrombus were layered onto coated and bare metal disks in the wells of a 48-well plate, covered with human plasma and incubated at 37° C. on an orbital shaker for 5 minutes. The thrombus slices were mechanically removed using tweezers, the disk washed in PBS and stained with a solution made of Hoechst 33342 (1 μg/ml, to stain DNA) and Evans Blue (3%, to stain proteins) in PBS for 5 minutes. […] The image analysis was performed using the Image J open software.

[3] = coated disk compared to bare metal

Structure (SMILES) | Platelet binding (% of max) (blood platelets) | Chomatin binding (% of max) [1] | Chromatin/Platelet binding ratio [1] | Platelet binding (example disk image, in words) (blood platelets; [3]) | Chromatin binding (example disk image, in words) [1, 3] | DNA and proteins captured from the thrombus (Integrated Density) [2]
O=C(O)c1cn(C2CC2)c2cc(N3CCNCC3)c(F)cc2c1=O [Ciprofloxacin, reference compound] | 27.57 ± 3.22 % of max | 23.63 ± 9.59 % of max | – | – | – | –
Cn1cc(NC(=O)c2cc(NC(=O)c3cc(NC=O)cn3C)cn2C)cc1C(=O)NCCC(=N)N [Distamycin, reference compound] | 12.42 ± 1.72 % of max | 12.26 ± 4.14 % of max | 0.99 | – | – | –
[N-]=[N+]=NCCOCCOCCNC(=O)c1cc2cc(N(CCCl)CCCl)ccc2o1 [MBF, N-(2-(2-(2-azidoethoxy)ethoxy)ethyl)-5-(bis(2-chloroethyl)amino)benzofuran-2-carboxamide] | 23.18 ± 4.05 % of max | 66.07 ± 13.21 % of max | 2.85 | low platelet binding | high | –
[N-]=[N+]=NCCOCCOCCNC(=O)CCc1ccc(N(CCCl)CCCl)cc1 [PPM, N-(2-(2-(2-azidoethoxy)ethoxy)ethyl)-3-(4-(bis(2-chloroethyl)amino)phenyl)propanamide] | 48.8 ± 5.59 % of max | 36.75 ± 5.78 % of max | 0.75 | – | – | –
CCCCCOCCCCCN=[N+]=[N-] [Pipe-2] | 16 ± 5.78 % of max | 57.5 7.05 % of max | 3.59 | – | – | –
CSc1ccc2c(c1)N(CCC1CCCCN1C)c1ccccc1S2 (centres unmarked) [thioridazine] | – | – | – | – | – | capture more DNA and proteins
